In data set [1] the target is T1, muscarinic receptors (heart) (Rattus norvegicus, UniProt P10980).
T1 construct: The whole heart was cut up with scissors; from tissue; host or cells: whole heart of male Sprague-Dawley rats, homogenate
T1 sequence (P10980 1-466): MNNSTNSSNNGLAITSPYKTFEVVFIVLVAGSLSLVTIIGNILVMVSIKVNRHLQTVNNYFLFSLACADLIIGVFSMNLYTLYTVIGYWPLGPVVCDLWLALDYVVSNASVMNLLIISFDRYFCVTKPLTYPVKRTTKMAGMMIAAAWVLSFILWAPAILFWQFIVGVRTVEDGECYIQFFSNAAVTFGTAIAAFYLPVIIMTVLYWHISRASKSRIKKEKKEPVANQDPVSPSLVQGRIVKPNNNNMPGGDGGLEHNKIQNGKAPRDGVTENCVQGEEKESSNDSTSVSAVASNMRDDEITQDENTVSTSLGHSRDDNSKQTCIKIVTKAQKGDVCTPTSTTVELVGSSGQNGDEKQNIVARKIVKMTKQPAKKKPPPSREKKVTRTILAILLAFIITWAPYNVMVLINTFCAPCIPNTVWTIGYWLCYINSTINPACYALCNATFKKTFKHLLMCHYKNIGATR
Kind of data set: Receptor binding test in vitro, 3H-NMS displacement, whole heart. Also on record: species or system rat (male Sprague-Dawley).
Description: The organs were donated by male Sprague-Dawley rats weighing 180-220 g. After the heart and submandibular gland had been removed, all other steps were carried out in ice cold Hepes HCl buffer (pH 7.4; 100 mmolar NaCl, 10 mmolar MgCl2). The whole heart was cut up with scissors. All the organs were then homogenised in a Potter apparatus.
For the binding test the homogenised organs were diluted as follows:
The homogenised organs were incubated at a certain concentration of the radioligand and at a series of concentrations of the non-radioactive test substances in an Eppendorf centrifuge tube at 30° C. Incubation lasted 45 minutes. […] Incubation was ended by the addition of ice cold buffer followed by vacuum filtration. The filters were rinsed with cold buffer and their radioactivity was determined. […] Each measurement was taken four times. The IC50 values of the non-labelled test substances were determined graphically.

Data set [2] deals with muscarinic receptors (submandibular gland) (Rattus norvegicus, UniProt P08483). Description: biochemical. The data set is classed as binding, rat (male Sprague-Dawley). The note with it: in vitro, 0.3 nmolar 3H-NMS, 45 min, 30° C., read-out: log IC50, Submandibular gland (converted).
For the next data set, the target named is T2, M2 (Rattus norvegicus, UniProt P10980).
T2 construct: The bradycardia caused by vagus stimulation; from tissue; host or cells: heart of the living male THOM rat
T2 sequence (P10980 1-466): T1 sequence (P10980 1-466)
Kind of data set: M2 activity in the rat: inhibition of bradycardia caused by vagus stimulation. Type of data set: in vivo, rat (male THOM). The note with it: iv, 5 min, 50% reduction of vagal bradycardia. The protocol:
The method used was described by Hammer and Giachetti (Life Sciences 31, 2991-2998 (1982)). 5 minutes after the intravenous injection of increasing doses of the substance, either the right vagus was electrically stimulated (frequency: 25 Hz; pulse width: 2 ms; duration of stimulus: 30 s; voltage: supramaximal) or 0.3 mg/kg of McN-A-343 were intravenously injected into male THOM rats. The bradycardia caused by vagus stimulation and the rise in blood pressure caused by McN-A-343 were determined. The dosage of the substances which reduced either the vagal bradycardia (M2) or the rise in blood pressure (M1) by 50% was determined graphically. For the results see Table II.

The target in another data set is T3, M1 (Rattus norvegicus, UniProt P08482).
T3 construct: from tissue; host or cells: living male THOM rat (site of action, sympathetic ganglia, is own knowledge)
T3 sequence (P08482 1-460): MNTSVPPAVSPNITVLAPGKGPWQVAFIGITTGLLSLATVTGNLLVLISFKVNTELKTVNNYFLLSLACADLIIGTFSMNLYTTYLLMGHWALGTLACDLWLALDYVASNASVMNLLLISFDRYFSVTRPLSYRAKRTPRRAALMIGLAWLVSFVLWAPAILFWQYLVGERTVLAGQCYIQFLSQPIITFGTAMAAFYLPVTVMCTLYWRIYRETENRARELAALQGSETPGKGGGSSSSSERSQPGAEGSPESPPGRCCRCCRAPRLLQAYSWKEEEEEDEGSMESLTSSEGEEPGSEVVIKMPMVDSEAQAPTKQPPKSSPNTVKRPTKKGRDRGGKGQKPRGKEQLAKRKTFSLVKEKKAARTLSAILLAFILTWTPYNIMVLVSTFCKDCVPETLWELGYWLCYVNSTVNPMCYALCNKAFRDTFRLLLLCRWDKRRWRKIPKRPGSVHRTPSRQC
Kind of data set: M1 activity in the rat: inhibition of rise in blood pressure caused by McN-A-343. The data set is classed as in vivo, rat (male THOM). The note with it: iv, 5 min, i.v., 50% reduction of McN-A-343 rise in blood pressure, read-out: M1 activity (rat) ED50. The protocol: The dosage of the substances which reduced either the vagal bradycardia (M2) or the rise in blood pressure (M1) by 50% was determined graphically. For the results see Table II.

The next data set can be described thus: Solubility in water. The data set is classed as physicochemical.
For data set [3], the target named is muscarinic receptors (lachrymal glands) (Rattus norvegicus, UniProt P08483). Kind of data set: in vivo. The protocol: (§1) For these experiments, female rats with a body weight of about 200 g were used. Before the start of the experiment the animals were anaesthetised with a dose of 1.25 g/kg of urethane. The animals were given the dosage of test substance by i.v. injection. After 15 minutes, 113 ng/kg of ^3 H-N-methylscopolamine (^3 H-NMS) were given by the same route. After another 15 minutes the animals were killed and their heart, bronchi and lachrymal glands were taken out. These organs were dissolved in Soluene R and the radioactivity was measured. These measurements were taken as representing total binding. […] The ID50 values for the individual organs were determined from these experiments. […]

For data set [4], the target named is T4, muscarinic receptors of the atrium (Cavia porcellus, UniProt H0VRN8).
T4 construct: isolated, spontaneously beating, right atrium; from tissue; host or cells: isolated spontaneously beating right atrium of the guinea pig
T4 sequence (H0VRN8 1-466): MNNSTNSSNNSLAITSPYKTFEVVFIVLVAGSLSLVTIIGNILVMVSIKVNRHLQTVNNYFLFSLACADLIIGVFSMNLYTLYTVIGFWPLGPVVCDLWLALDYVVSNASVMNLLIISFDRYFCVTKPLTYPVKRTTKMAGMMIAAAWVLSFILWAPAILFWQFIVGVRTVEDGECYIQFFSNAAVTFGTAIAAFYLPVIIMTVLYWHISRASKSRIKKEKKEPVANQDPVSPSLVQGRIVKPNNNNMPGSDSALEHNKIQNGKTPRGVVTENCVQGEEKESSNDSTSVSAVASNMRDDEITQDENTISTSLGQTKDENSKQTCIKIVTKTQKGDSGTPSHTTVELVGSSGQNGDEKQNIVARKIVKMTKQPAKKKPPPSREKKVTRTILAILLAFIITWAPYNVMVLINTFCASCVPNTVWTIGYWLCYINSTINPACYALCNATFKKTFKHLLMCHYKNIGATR
Kind of data set: Dissociation constants (KB values) on the isolated spontaneously beating right atrium. The note with it: spontaneously beating atrium, guinea pig, methacholine, 30 minutes contact; read-out: KB, Heart. Also on record: species or system guinea pig. The protocol:
(§2) Dissociation constants (KB values) were determined "in vitro" on the ileum and spontaneously beating atrium of the guinea pig. The ileum was taken out and incubated in Krebs-Henseleit solution in an organ bath. Contractions were induced by increasing concentrations of methacholine (M) so that total concentration/activity curves could be recorded. M was then washed out, the test substance was added and kept in contact for 30 minutes and another concentration/activity curve was recorded with M.
(§3) Dissociation constants for the muscarinic receptors of the atrium were obtained in the manner described above.

The subject of data set [5] is muscarinic receptors of the atrium. Described as above. Also noted: species or system guinea pig. The settings on record: guinea pig heart and ileum in vitro. The protocol: as §2, §3
The target in data set [6] is T5, muscarinic receptors (ileum) (Cavia porcellus, UniProt H0W1Z3).
T5 construct: from tissue; host or cells: isolated ileum of the guinea pig
Description: Dissociation constants (KB values) on the isolated ileum. The note with it: guinea pig, methacholine, 30 minutes contact. The protocol: as §2

The target in data set [7] is T6, muscarinic receptors (heart, atrium) (Rattus norvegicus, UniProt P10980).
T6 construct: from tissue; host or cells: heart (atrium, ventricle) of female rats, labelled in vivo
T6 sequence (P10980 1-466): T1 sequence (P10980 1-466)
Kind of data set: Receptor binding test in vivo (3H-NMS), atrium. Also noted: species or system rat (female). The settings on record: in vivo binding. As for the experimental part: as §1

The target in data set [8] is T7, muscarinic receptors (heart, ventricle) (Rattus norvegicus, UniProt P10980).
T7 construct: from tissue; host or cells: heart (atrium, ventricle) of female rats, labelled in vivo
T7 sequence (P10980 1-466): T1 sequence (P10980 1-466)
Description: Receptor binding test in vivo (3H-NMS), ventricle. Also noted: species or system rat (female). The note with it: iv, 0.5 h, i.v., in vivo 3H-NMS binding, read-out: ID50, Heart, Ventricle. As for the experimental part: as §1

In data set [9] the test system is muscarinic receptors (bronchi). Description: Receptor binding test in vivo (3H-NMS), bronchi. Also noted: species or system rat (female). The note with it: i.v., in vivo 3H-NMS binding, rat; 30 min. As for the experimental part: as §1

Where a name gives a salt, the structure may show the parent alone.

Chain of muscarinic receptors (submandibular gland) (P08483 whole entry): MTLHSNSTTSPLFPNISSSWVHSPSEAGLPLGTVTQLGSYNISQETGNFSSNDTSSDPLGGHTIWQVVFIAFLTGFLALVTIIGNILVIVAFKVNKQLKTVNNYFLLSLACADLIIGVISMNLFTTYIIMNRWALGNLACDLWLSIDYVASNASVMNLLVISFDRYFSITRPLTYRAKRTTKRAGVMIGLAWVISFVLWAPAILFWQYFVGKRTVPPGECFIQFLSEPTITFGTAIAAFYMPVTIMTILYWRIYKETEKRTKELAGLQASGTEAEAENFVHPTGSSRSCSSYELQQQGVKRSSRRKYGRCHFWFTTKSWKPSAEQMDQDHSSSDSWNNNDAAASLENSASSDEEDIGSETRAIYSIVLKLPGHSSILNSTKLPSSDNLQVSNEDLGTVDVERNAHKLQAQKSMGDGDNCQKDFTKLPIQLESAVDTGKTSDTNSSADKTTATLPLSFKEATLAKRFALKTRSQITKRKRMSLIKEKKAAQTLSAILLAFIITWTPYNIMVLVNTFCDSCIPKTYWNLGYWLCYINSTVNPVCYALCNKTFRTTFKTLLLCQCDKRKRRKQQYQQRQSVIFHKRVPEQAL
Chain of muscarinic receptors (lachrymal glands) (P08483 whole entry): as above
T5 sequence (H0W1Z3 1-590): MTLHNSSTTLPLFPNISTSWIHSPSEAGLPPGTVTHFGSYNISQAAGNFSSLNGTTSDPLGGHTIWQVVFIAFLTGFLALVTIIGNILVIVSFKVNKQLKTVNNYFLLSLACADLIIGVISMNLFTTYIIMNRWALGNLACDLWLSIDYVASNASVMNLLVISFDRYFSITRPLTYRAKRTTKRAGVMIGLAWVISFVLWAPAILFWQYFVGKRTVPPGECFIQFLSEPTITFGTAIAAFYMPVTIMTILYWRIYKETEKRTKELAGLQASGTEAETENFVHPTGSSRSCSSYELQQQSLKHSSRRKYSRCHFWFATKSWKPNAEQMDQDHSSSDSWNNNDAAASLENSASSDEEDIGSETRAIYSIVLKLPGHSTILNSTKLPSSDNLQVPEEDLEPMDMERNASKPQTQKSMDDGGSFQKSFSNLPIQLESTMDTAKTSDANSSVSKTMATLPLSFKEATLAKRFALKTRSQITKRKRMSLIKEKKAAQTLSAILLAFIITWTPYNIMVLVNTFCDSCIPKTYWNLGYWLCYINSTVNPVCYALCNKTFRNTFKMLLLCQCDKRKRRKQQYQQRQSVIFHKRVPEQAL

With `Cl.O=C1Nc2cccnc2N(C(=O)N2CCCC(CCN3CCCCCC3)C2)c2ccccc21` (stereo not shown) [Substance F, 5,11-dihydro-11-[[3-[2-(hexahydro-1H-1-azepinyl)ethyl]-1-piperidinyl]carbonyl]-6H-pyrido[2,3-b][1,4]-benzodiazepin-6-one-hydrochloride], in data set [1], the “Selectivity factor: ratio IC50 submandibular gland to IC50 heart” value stood at 10. For the same molecule, the concentration for half-maximal inhibition (IC50) in [2] is 30.2 nM.

In the case of `O=C1Nc2ccccc2N(C(=O)N2CCCC(CCN3CCCCC3)C2)c2ncccc21` (stereo not shown) [Substance G, 6,11-dihydro-11-[[3-[2-(1-piperidinyl)ethyl]-1-piperidinyl]carbonyl]-5H-pyrido[2,3-b][1,5]benzodiazepin-5-one], the “Selectivity factor: ratio IC50 submandibular gland to IC50 heart” value in data set [1] was 10. For the same molecule, the IC50 in [2] was 39.8 nM. For the same molecule, the values for the ED50 on M2 and on M1 were 8.13 µg/kg and 7.16 µg/kg, respectively.

Take `CS(=O)(=O)O.O=C1Nc2cccnc2N(C(=O)N2CCCC(CCCN3CCCCC3)C2)c2ccccc21` (stereo not shown) [Example 1 methanesulphonate, 5,11-dihydro-11-[[3-[3-(1-piperidinyl)propyl]-1-piperidinyl]carbonyl]-6H-pyrido[2,3-b][1,4]benzodiazepin-6-one-methanesulphonate]: the “solubility in water (in words)” value in the data set “Solubility in water” is “readily soluble in water”.

For the molecule `O=C1Nc2cccnc2N(C(=O)N2CCCC(CCN3CCCC3)C2)c2ccccc21` (stereo not shown) [Substance D, 5,11-dihydro-11-[[3-[2-(1-pyrrolidinyl)ethyl]-1-piperidinyl]carbonyl]-6H-pvrido[2,3-b][1,4]benzodiazepin-6-one-hydrochloride], the “Selectivity factor: ratio IC50 submandibular gland to IC50 heart” value in data set [1] came to 8.3. The concentration for half-maximal inhibition (IC50) in data set [2] was 50.1 nM.

For the molecule `CCN(CC)CCCCC1CCCCN1C(=O)N1c2ccccc2C(=O)Nc2cccnc21` (stereo not shown) [Example 4 dihydrochloride], the “solubility in water (in words)” value in “Solubility in water” is recorded as “water soluble”.

Take `CN(CCC1CCCN(C(=O)N2c3ccccc3C(=O)Nc3cccnc32)C1)C1CCCC1` (stereo not shown) [Substance E]: the “Selectivity factor: ratio IC50 submandibular gland to IC50 heart” value in [1] is 10. Also, the IC50 in [2] was 30.2 nM.

Turning to `CCN(CC)CC1CCCCN1CC(=O)N1c2ccccc2C(=O)Nc2cccnc21` (stereo not shown) [Substance X, 11-[[2-[(diethylamino)methyl]-1-piperidinyl]acetyl]-5,11-dihydro-6H-pyrido[2,3-b][1,4]benzodiazepin-6-one], the ED50 in [3] (iv, 0.5 h, read-out: ID50, Lachrymal glands) was over 30000 µg/kg.

For `Cl.O=C1Nc2cccnc2N(C(=O)N2CCCC(CCCN3CCCC3)C2)c2ccccc21` (stereo not shown) [Substance B, 5,11-dihydro-11-[[3-[3-(1-pyrrolidinyl)propyl]-1-piperidinyl]carbonyl]-6H-pyrido[2,3-b][1,4]benzodiazepin-6-one-hydrochloride], the “Selectivity factor: ratio IC50 submandibular gland to IC50 heart” value in data set [1] is given as 4. Further, in data set [2], the half-inhibitory concentration (IC50) was 39.8 nM.

As for `O=C1Nc2cccnc2N(C(=O)N2CCCC(CCCN3CCCCC3)C2)c2ccccc21` (stereo not shown) [Substance A, 5,11-dihydro-11-[[3-[3-(1-piperidinyl)propyl]-1-piperidinyl]carbonyl]-6H-pyrido[2,3-b][1,4]-benzodiazepin-6-one], the “Selectivity factor: ratio IC50 submandibular gland to IC50 heart” value in data set [1] is 10. For the same molecule, in data set [2], the IC50 is 20 nM. In addition, the ED50 on M2 amounted to 6.9 µg/kg; on M1 it was 49 µg/kg; in [8], 5 µg/kg. Besides, the Kb in [4] stood at 0.347 nM; in data set [6], 3.23 nM. Moreover, the “effectiveness compared with X and Y, Table III (in words)” value in data set [5] is “significantly more effective than X and Y”. In [5], the “selectivity heart vs smooth muscle, Table III (in words)” value is listed as “a clear selectivity in favour of the heart”. For the same molecule, the “potency on the heart compared with X and Y, Table IV (in words)” value in data set [7] is “significant improvement in potency compared with substances X and Y on the heart”. For the same molecule, the “ID50, Bronchi” value in [9] is 60 µg/kg. In data set [3] (in vivo binding), the “Ratio of ID50 in the lachrymal glands to ID50 in the atrium” value amounted to 20.

Take `CS(=O)(=O)O.O=C1Nc2cccnc2N(C(=O)N2CCCC(CCN3CCCCC3)C2)c2ccccc21` (stereo not shown) [Substance C, 5,11-dihydro-11-[[3-[2-(1-piperidinyl)ethyl]-1-piperidinyl]carbonyl]-6H-pyrido[2,3-b][1,4]benzodiazepin-6-one-methanesulphonate]: the “Selectivity factor: ratio IC50 submandibular gland to IC50 heart” value in [1] amounted to 10. Also, the 50% inhibitory concentration (IC50) in data set [2] is 30.2 nM. The ED50 on M2 came out at 7.6 µg/kg; at M1, 39 µg/kg.

The term IC50 denotes the concentration needed to halve the response being measured.

For the origin of these results see patent US4931436A, “Condensed diazepinones, processes for preparing them and pharmaceutical compositions containing these compounds” (Dr. Karl Thomae GmbH, priority 1988, dated 1990).
